Measurements: patent US20250011881A1, “MYC-HSF1 DUAL AMPLIFICATION AS A BIOMARKER FOR CANCER TREATMENT” (The Trustees of Indiana University, priority 2023, published 2025)
Several values for one entry are separate records, joined by “and”; a condition that tells them apart may be missing. Identical values can stand only once. Counter-ions that a name gives are not always drawn. Like-named read-outs stand apart in the source and are kept apart here.

System: ovarian cancer cells with (OVCAR8, OVCAR4) or without (OVSAHO, CAOV3) MYC-HSF1 amplification
Assay: Epigenetic inhibitor drug screen, cell viability (Cell Titer Blue)
Type: cell-based
[1] = 10 uM, 48 hrs, average relative cell viability (vs 1% DMSO) of non-amplified cells (OVSAHO, CAOV3) minus that of MYC-HSF1 amplified cells (OVCAR8, OVCAR4), positive = greater response in amplified cells, 10 µM
[2] = 10 uM, 48 hrs, average relative cell viability (vs 1% DMSO) of non-amplified cells (OVSAHO, CAOV3) minus that of MYC-HSF1 amplified cells (OVCAR8, OVCAR4), positive = greater response in amplified cells

COc1ccccc1S(=O)(=O)Nc1ccc2c(c1)CN(C)C(=O)N2 [PFI-1]
Non Amp - AMP (POC) 10 uM [1]: 9.637 POC | Non Amp - AMP (POC) 10 uM (10 uM, 48 hrs, average relative cell viability (vs 1% DMSO) of non-amplified cells (OVSAHO, CAOV3) minus that of MYC-HSF1 amplified cells (OVCAR8, OVCAR4), positive = greater response in amplified cells, listed as PFI-1 (PF-6405761), 10 µM): 2.51 POC

Cl.O=C([C@@H](Cc1cccc(C(F)(F)F)c1)NS(=O)(=O)c1cc(F)c2c(c1)CCNC2)N1CCCC1 [PFI-2 (hydrochloride)]
Non Amp - AMP (POC) 10 uM [1]: 2.189 POC

O=C([C@@H](Cc1cccc(C(F)(F)F)c1)NS(=O)(=O)c1cc(F)c2c(c1)CCNC2)N1CCCC1 [PFI-2]
Non Amp - AMP (POC) 10 uM [2]: −2.63 POC

O=C(/C=C/N1C[C@H]2C[C@@H]1CN2c1ccccn1)c1ccccc1O [PFI-3]
Non Amp - AMP (POC) 10 uM [1]: 12.92 POC | Non Amp - AMP (POC) 10 uM (10 uM, 48 hrs, average relative cell viability (vs 1% DMSO) of non-amplified cells (OVSAHO, CAOV3) minus that of MYC-HSF1 amplified cells (OVCAR8, OVCAR4), positive = greater response in amplified cells, listed as PFI 3, 10 µM): 5.077 POC

COc1ccccc1C(=O)Nc1cc2c(cc1N1CCCC1)n(C)c(=O)n2C [PFI-4]
Non Amp - AMP (POC) 10 uM [1]: 17.43 POC | Non Amp - AMP (POC) 10 uM (10 uM, 48 hrs, average relative cell viability (vs 1% DMSO) of non-amplified cells (OVSAHO, CAOV3) minus that of MYC-HSF1 amplified cells (OVCAR8, OVCAR4), positive = greater response in amplified cells, listed as PFI 4, 10 µM): −0.5403 POC

CCc1cccc(CC)c1NC(=O)N1Cc2n[nH]c(NC(=O)c3ccc(N4CCN(C)CC4)cc3)c2C1 [PHA-680632]
Non Amp - AMP (POC) 10 uM [2]: −11.28 POC

CN(C)CC(=O)Nc1ccc2[nH]c(=O)c3ccccc3c2c1.Cl [PJ34 hydrochloride]
Non Amp - AMP (POC) 10 uM [2]: 3.696 POC

O=C1C(=Cc2cccnc2)C(=O)c2ccccc21 [PRT4165]
Non Amp - AMP (POC) 10 uM [2]: 1.398 POC

O=C(CBr)c1ccc(O)cc1 [PTP Inhibitor I]
Non Amp - AMP (POC) 10 uM [2]: −3.586 POC

CCC(C)SSc1ncc[nH]1 (stereo not shown) [PX 12]
Non Amp - AMP (POC) 10 uM [2]: −7.518 POC

C1=C/COCc2cc(ccc2OCCN2CCCC2)Nc2nccc(n2)-c2cccc(c2)COC/1 [Pacritinib (SB1518), Pacritinib]
Non Amp - AMP (POC) 10 uM [2]: −2.391 POC

Cc1[nH]c2ccccc2c1CCNCc1ccc(/C=C/C(=O)NO)cc1 [Panobinostat]
Non Amp - AMP (POC) 10 uM [1]: 41.46 POC | Non Amp - AMP (POC) 10 uM (10 uM, 48 hrs, average relative cell viability (vs 1% DMSO) of non-amplified cells (OVSAHO, CAOV3) minus that of MYC-HSF1 amplified cells (OVCAR8, OVCAR4), positive = greater response in amplified cells, listed as Panobinostat (LBH589), 10 µM): 27.26 POC

[H]/N=C(/N)N/C(=N/[H])NCCc1ccccc1 [Phenformin HCl]
Non Amp - AMP (POC) 10 uM [2]: 7.32 POC

NC(=O)c1ccccn1 [Picolinamide]
Non Amp - AMP (POC) 10 uM [2]: 20.35 POC

COc1cccc2c1C(=O)c1c(O)c3c(c(O)c1C2=O)C[C@@](O)(C(=O)CO)C[C@@H]3O[C@H]1C[C@H](N)[C@H](O[C@@H]2CCCCO2)[C@H](C)O1 [Pirarubicin]
Non Amp - AMP (POC) 10 uM [2]: 6.408 POC

CC1=CC(=O)c2c(O)cccc2C1=O [Plumbagin]
Non Amp - AMP (POC) 10 uM [2]: 4.102 POC

CCN(CC)CCNC(=O)c1ccc(N)cc1 [Procainamide HCl]
Non Amp - AMP (POC) 10 uM [2]: 4.095 POC

CNNCc1ccc(C(=O)NC(C)C)cc1 [Procarbazine HCl]
Non Amp - AMP (POC) 10 uM [2]: 1.149 POC

CC(C)(C)c1nc2c3cc[nH]c(=O)c3c3cc(F)ccc3c2[nH]1 [Pyridone 6]
Non Amp - AMP (POC) 10 uM: −0.4008 POC

O=C(CCCCCCC(=O)Nc1cccnc1)NO [Pyroxamide]
Non Amp - AMP (POC) 10 uM [2]: 60.34 POC

O=C(O)C(Cc1c[nH]c2ccccc12)N1C(=O)c2ccccc2C1=O (stereo not shown) [RG108]
Non Amp - AMP (POC) 10 uM [1]: 17.36 POC | Non Amp - AMP (POC) 10 uM (10 uM, 48 hrs, average relative cell viability (vs 1% DMSO) of non-amplified cells (OVSAHO, CAOV3) minus that of MYC-HSF1 amplified cells (OVCAR8, OVCAR4), positive = greater response in amplified cells, listed as RG 108, 10 µM): −2.615 POC

CN1CCN(C(=O)CN[C@H]2C[C@@H]2c2ccc(OCc3ccccc3)cc2)CC1.Cl.Cl [RN-1 (hydrochloride)]
Non Amp - AMP (POC) 10 uM [2]: −2.198 POC

NC(=O)c1cccc(NC(=O)/C=C/c2c[nH]c3ccccc23)c1 [RSC-133]
Non Amp - AMP (POC) 10 uM [2]: 26.08 POC

COc1cc(OC)c2c(=O)[nH]c(-c3cc(C)c(OCCO)c(C)c3)nc2c1 [RVX-208]
Non Amp - AMP (POC) 10 uM [1]: 12.33 POC and 7.058 POC

C[C@@H]1O[C@@H](O[C@H]2[C@H](O[C@H]3[C@H](O[C@H]4CC[C@]5(C)[C@H]6CC=C7[C@@H]8CC(C)(C)CC[C@]8(C(=O)O)CC[C@@]7(C)[C@]6(C)CC[C@H]5C4(C)C)OC[C@H](O)[C@@H]3O)O[C@H](CO)[C@@H](O)[C@@H]2O)[C@H](O)[C@H](O)[C@H]1O [Raddeanin A]
Non Amp - AMP (POC) 10 uM [2]: 2.609 POC

N#Cc1ccc(-c2csc(NN=C3CCCC3)n2)cc1 [Remodelin]
Non Amp - AMP (POC) 10 uM [2]: 13.34 POC

CN(C)Cc1ccc(S(=O)(=O)n2ccc(/C=C/C(=O)NO)c2)cc1 [Resminostat (hydrochloride), Resminostat]
Non Amp - AMP (POC) 10 uM [2]: 36.33 POC

Oc1ccc(C=Cc2cc(O)cc(O)c2)cc1 [Resveratrol]
Non Amp - AMP (POC) 10 uM [2]: 0.9482 POC

c1nc2nc(Nc3ccc(N4CCOCC4)cc3)nc(NC3CCCCC3)c2[nH]1 [Reversine]
Non Amp - AMP (POC) 10 uM [2]: −6.769 POC

CS(=O)(=O)O.Cn1cc(C2=C(c3cn(CCCSC(=N)N)c4ccccc34)C(=O)NC2=O)c2ccccc21 [Ro 31-8220 Mesylate]
Non Amp - AMP (POC) 10 uM [2]: 3.048 POC

O=C(CCCCCCNC(=O)c1cnc(N(c2ccccc2)c2ccccc2)nc1)NO [Rocilinostat (ACY-1215), Rocilinostat]
Non Amp - AMP (POC) 10 uM [2]: 32.23 POC

C/C=C1\NC(=O)[C@H]2CSSCC/C=C/[C@H](CC(=O)N[C@H](C(C)C)C(=O)N2)OC(=O)[C@H](C(C)C)NC1=O [Romidepsin (FK229, depsipeptide), Romidepsin]
Non Amp - AMP (POC) 10 uM: 4.459 POC

CNCc1ccc(-c2[nH]c3cc(F)cc4c3c2CCNC4=O)cc1 [Rucaparib (AG-014699, PF-01367338), Rucaparib]
Non Amp - AMP (POC) 10 uM [1]: 0.4948 POC

CNCc1ccc(-c2[nH]c3cc(F)cc4c3c2CCNC4=O)cc1 [Rucaparib (free base), Rucaparib]
Non Amp - AMP (POC) 10 uM [1]: 8.811 POC

N#CC[C@H](C1CCCC1)n1cc(-c2ncnc3[nH]ccc23)cn1 [Ruxolitinib (INCB018424), Ruxolitinib]
Non Amp - AMP (POC) 10 uM [1]: −4.311 POC

N#CC[C@H](C1CCCC1)n1cc(-c2ncnc3[nH]ccc23)cn1 [Ruxolitinib phosphate]
Non Amp - AMP (POC) 10 uM [1]: 2.659 POC

CCCCc1nc2cc(/C=C/C(=O)NO)ccc2n1CCN(CC)CC [SB939, Pracinostat]
Non Amp - AMP (POC) 10 uM [1]: 42.19 POC | Non Amp - AMP (POC) 10 uM (10 uM, 48 hrs, average relative cell viability (vs 1% DMSO) of non-amplified cells (OVSAHO, CAOV3) minus that of MYC-HSF1 amplified cells (OVCAR8, OVCAR4), positive = greater response in amplified cells, listed as Pracinostat (SB939), 10 µM): 22.93 POC

CN1C/C=C/CCOc2cccc(c2)-c2ccnc(n2)Nc2cccc(c2)C1 [SB1317]
Non Amp - AMP (POC) 10 uM [2]: 5.059 POC

O=C(CCCCCCC(=O)NO)NO [SBHA]
Non Amp - AMP (POC) 10 uM: 0.3146 POC

O=C(NCC(=O)N1CCCC1)Nc1ccc2cnccc2c1 [SGC707]
Non Amp - AMP (POC) 10 uM: 4.518 POC

CC(C)N(CCCNC(=O)Nc1ccc(C(C)(C)C)cc1)C[C@H]1O[C@@H](n2cc(Br)c3c(N)ncnc32)[C@H](O)[C@@H]1O [SGC 0946]
Non Amp - AMP (POC) 10 uM [2]: 1.268 POC

CN1CCC(CNc2ccc3ncc(-c4cccc(OC(F)(F)F)c4)n3n2)CC1 [SGI-1776 free base]
Non Amp - AMP (POC) 10 uM [2]: −17.37 POC

O=c1[nH]c(=S)[nH]c(-c2ccccc2)c1Cc1c(O)ccc2ccccc12 [SIRT 1/2 Inhibitor IV]
Non Amp - AMP (POC) 10 uM [2]: 18.95 POC

O=C1NC(=O)/C(=C/c2cccc(C(F)(F)F)c2)S1 [SMI-4a]
Non Amp - AMP (POC) 10 uM [2]: −1.184 POC

Cl.O=C(Nc1ccccc1-c1cn2c(CN3CCNCC3)csc2n1)c1cnc2ccccc2n1 [SRT1720 HCl]
Non Amp - AMP (POC) 10 uM [2]: 4.809 POC

Cc1nc(-c2cccnc2)sc1C(=O)Nc1ccccc1-c1cn2c(CN3CCOCC3)csc2n1 [SRT2104 (GSK2245840)]
Non Amp - AMP (POC) 10 uM [2]: −1.9 POC

O=C(/C=C/c1ccccc1)NC(NC(=S)Nc1ccc(Cl)cc1)C(Cl)(Cl)Cl (stereo not shown) [Sal 003]
Non Amp - AMP (POC) 10 uM [2]: −16.28 POC

CC(C(=O)Nc1cccc(/N=C/c2c(O)ccc3ccccc23)c1)c1ccccc1 (stereo not shown) [Salermide]
Non Amp - AMP (POC) 10 uM [2]: −13.88 POC

O=C(/C=C/c1ccc(O)c2c1[C@H](C(=O)O[C@H](Cc1ccc(O)c(O)c1)C(=O)O)[C@@H](c1ccc(O)c(O)c1)O2)O[C@H](Cc1ccc(O)c(O)c1)C(=O)O [Salvianolic acid B]
Non Amp - AMP (POC) 10 uM [2]: 2.345 POC

O=C(CCCCCN1C(=O)c2cccc3cccc(c23)C1=O)NO [Scriptaid]
Non Amp - AMP (POC) 10 uM [1]: 45.24 POC and 29.99 POC

Cc1cc(C)nc(SCC(=O)Nc2ncc(Cc3cccc4ccccc34)s2)n1 [SirReal2]
Non Amp - AMP (POC) 10 uM [2]: −3.472 POC

Nc1ncnc2c1ncn2[C@@H]1O[C@H](C[C@@H](N)CC[C@H](N)C(=O)O)[C@@H](O)[C@H]1O [Sirefungin]
Non Amp - AMP (POC) 10 uM [2]: 12.42 POC

O=C([O-])CCCc1ccccc1.[Na+] [Sodium 4-phenylbutyrate]
Non Amp - AMP (POC) 10 uM [2]: 6.103 POC

CCCC(=O)[O-].[Na+] [Sodium butyrate]
Non Amp - AMP (POC) 10 uM: −0.4466 POC

CN1CCN(c2nc(C3=C(c4c[nH]c5ccccc45)C(=O)NC3=O)c3ccccc3n2)CC1 [Sotrastaurin (AEB071), Sotrastaurin]
Non Amp - AMP (POC) 10 uM [2]: 10.63 POC

CN[C@@H]1C[C@H]2O[C@@](C)([C@@H]1OC)n1c3ccccc3c3c4c(c5c6ccccc6n2c5c31)C(=O)NC4 [Staurosporine]
Non Amp - AMP (POC) 10 uM [2]: 7.23 POC

N#Cc1c(Oc2ccc(F)c(NC(=O)Cc3cccc(C(F)(F)F)c3)c2)ccc2nc(NC(=O)C3CC3)sc12 [TAK-632]
Non Amp - AMP (POC) 10 uM [2]: −12.18 POC

CCS(=O)(=O)c1cccc(-c2cc(C(=O)NC3CCN(C)CC3)c(C)c3[nH]c4ncc(C)cc4c23)c1 [TAK-901]
Non Amp - AMP (POC) 10 uM [2]: 3.351 POC
